Common to all, as to assay: cAMP accumulation
Format in all cases: cell-based
In general terms: Changes in cAMP serve as a functional read-out for many G protein-coupled receptors.

One experiment addresses T1, hCTR H296A (Homo sapiens, UniProt P30988, H296A).
T1 construct: c-Myc (N); expressed in transfected cells
T1 sequence (P30988 25-474 H296A): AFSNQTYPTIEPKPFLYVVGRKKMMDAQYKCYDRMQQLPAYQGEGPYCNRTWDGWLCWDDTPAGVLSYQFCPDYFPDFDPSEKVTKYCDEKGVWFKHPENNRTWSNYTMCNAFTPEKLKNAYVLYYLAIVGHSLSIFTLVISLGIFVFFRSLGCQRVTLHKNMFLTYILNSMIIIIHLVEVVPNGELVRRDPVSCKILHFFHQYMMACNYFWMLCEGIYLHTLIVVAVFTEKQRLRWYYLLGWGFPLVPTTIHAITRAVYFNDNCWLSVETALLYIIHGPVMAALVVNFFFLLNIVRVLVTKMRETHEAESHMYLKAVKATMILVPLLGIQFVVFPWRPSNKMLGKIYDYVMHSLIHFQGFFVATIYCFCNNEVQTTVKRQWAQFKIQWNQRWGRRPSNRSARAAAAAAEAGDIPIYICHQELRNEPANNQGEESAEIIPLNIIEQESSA
Conditions: mean ± S.E.M.; for Emax: cAMP maximal response, SEM; for EC50: cAMP, CV1-FlpIn cells, 30 min, IBMX. A digest of the protocol:
(§1)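 30 min ligand stimulation with IBMX present; cells seeded overnight beforehand. Ethanol extract, dried at RT.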

For another experiment, the target named is T2, hCTR M367A (Homo sapiens, UniProt P30988, M367A).
T2 construct: c-Myc (N); expressed in transfected cells
T2 sequence (P30988 25-474 M367A): T1 sequence (P30988 25-474 H296A) with A272H, M343A
The note with it: mean ± S.E.M.; for Emax: cAMP maximal response, SEM; for EC50: cAMP, CV1-FlpIn cells, 30 min, IBMX. In outline:
as §1

The target of another experiment is T3, hCTR P363A (Homo sapiens, UniProt P30988, P363A).
T3 construct: expressed in transfected cells
T3 sequence (P30988 25-474 P363A): T1 sequence (P30988 25-474 H296A) with A272H, P339A
Conditions: mean ± S.E.M.; for Emax: cAMP maximal response, SEM; for EC50: cAMP, CV1-FlpIn cells, 30 min, IBMX. In outline: as §1

The next experiment concerns the target T4, hCTR W290A (Homo sapiens, UniProt P30988, W290A).
T4 construct: c-Myc (N); expressed in transfected cells
T4 sequence (P30988 25-474 W290A): T1 sequence (P30988 25-474 H296A) with W266A, A272H
Conditions: mean ± S.E.M.; for Emax: cAMP maximal response, SEM. In outline:
as §1

The next experiment deals with T5, hCTR W361A (Homo sapiens, UniProt P30988, W361A).
T5 construct: expressed in transfected cells
T5 sequence (P30988 25-474 W361A): T1 sequence (P30988 25-474 H296A) with A272H, W337A
The note with it: mean ± S.E.M.; for Emax: cAMP maximal response, SEM; for EC50: cAMP, CV1-FlpIn cells, 30 min, IBMX. A digest of the protocol:
as §1

Substitutions are numbered along the chain they refer to. Where a SMILES comes first, the peptide text is derived from it. Bridges are numbered along the chain shown (N, C = ends).

What is called Emax is the size of the effect at its maximum, as opposed to the concentration needed. For orientation: EC50 means the concentration that produces a half-maximal response. A low value points to a more potent agent.

For the compound `CC(C)C[C@H](NC(=O)[C@H](CCCCN)NC(=O)CNC(=O)[C@H](CC(C)C)NC(=O)[C@@H](NC(=O)[C@@H]1CSSC[C@H](N)C(=O)N[C@@H](CO)C(=O)N[C@@H](CC(N)=O)C(=O)N[C@@H](CC(C)C)C(=O)N[C@@H](CO)C(=O)N[C@@H]([C@@H](C)O)C(=O)N1)C(C)C)C(=O)N[C@@H](CO)C(=O)N[C@@H](CCC(N)=O)C(=O)N[C@@H](CCC(=O)O)C(=O)N[C@@H](CC(C)C)C(=O)N[C@@H](Cc1c[nH]cn1)C(=O)N[C@@H](CCCCN)C(=O)N[C@@H](CC(C)C)C(=O)N[C@@H](CCC(N)=O)C(=O)N[C@H](C(=O)N[C@@H](Cc1ccc(O)cc1)C(=O)N1CCC[C@H]1C(=O)N[C@@H](CCCNC(=N)N)C(=O)N[C@H](C(=O)N[C@@H](CC(N)=O)C(=O)N[C@H](C(=O)NCC(=O)N[C@@H](CO)C(=O)NCC(=O)N[C@H](C(=O)N1CCC[C@H]1C(N)=O)[C@@H](C)O)[C@@H](C)O)[C@@H](C)O)[C@@H](C)O` [sCT], the Emax at hCTR H296A amounted to 86 ± 5%; on hCTR M367A, 79 ± 3%; on hCTR P363A it was 111 ± 9%; on hCTR W290A it was 154 ± 7%; at hCTR W361A, 126 ± 7%.

With `CSCC[C@H](NC(=O)CNC(=O)[C@H](CO)NC(=O)[C@H](Cc1ccccc1)NC(=O)[C@H](CCCNC(=N)N)NC(=O)[C@H](Cc1c[nH]cn1)NC(=O)[C@H](Cc1ccccc1)NC(=O)[C@H](CC(N)=O)NC(=O)[C@H](CC(N)=O)NC(=O)[C@H](CC(C)C)NC(=O)[C@H](CC(N)=O)NC(=O)[C@H](CCCNC(=N)N)NC(=O)[C@H](Cc1c[nH]c2ccccc12)NC(=O)[C@H](Cc1ccc(O)cc1)NC(=O)[C@H](C)NC(=O)[C@H](CO)NC(=O)[C@H](CC(C)C)NC(=O)[C@@H](NC(=O)[C@@H]1CSSC[C@H](N)C(=O)N[C@@H](CO)C(=O)N[C@@H](CC(N)=O)C(=O)N[C@@H](CC(C)C)C(=O)N[C@@H](CO)C(=O)N[C@@H]([C@@H](C)O)C(=O)N1)C(C)C)C(=O)NCC(=O)N[C@@H](Cc1ccccc1)C(=O)NCC(=O)N1CCC[C@H]1C(=O)N[C@@H](CCC(=O)O)C(=O)N[C@H](C(=O)N1CCC[C@H]1C(N)=O)[C@@H](C)O` [pCT] (H-CSNLSTCVLSAYWRNLNNFHRFSGMGFGPETP-NH2; disulfide 1-7), the Emax worked out at 96 ± 8% on hCTR H296A; 73 ± 13% at hCTR M367A; 148 ± 15% at hCTR P363A; 113 ± 12% at hCTR W290A; 133 ± 9% on hCTR W361A. Besides, the EC50 on hCTR H296A is 0.0316 nM; on hCTR M367A, 0.0158 nM; on hCTR P363A, 0.389 nM; on hCTR W290A (cAMP, CV1-FlpIn cells, 30 min, IBMX), 3.31 nM; on hCTR W361A it was 0.148 nM.

For `CC(C)C[C@H](NC(=O)[C@H](CC(N)=O)NC(=O)[C@H](CC(N)=O)NC(=O)[C@H](CO)NC(=O)[C@H](CO)NC(=O)[C@H](CCCNC(=N)N)NC(=O)[C@@H](NC(=O)[C@H](CC(C)C)NC(=O)[C@H](Cc1ccccc1)NC(=O)[C@H](CC(N)=O)NC(=O)[C@H](C)NC(=O)[C@H](CC(C)C)NC(=O)[C@H](CCCNC(=N)N)NC(=O)[C@H](CCC(N)=O)NC(=O)[C@@H](NC(=O)[C@H](C)NC(=O)[C@@H]1CSSC[C@H](NC(=O)[C@@H](N)CCCCN)C(=O)N[C@@H](CC(N)=O)C(=O)N[C@@H]([C@@H](C)O)C(=O)N[C@@H](C)C(=O)N[C@@H]([C@@H](C)O)C(=O)N1)[C@@H](C)O)C(C)C)C(=O)NCC(=O)N1CCC[C@H]1C(=O)N[C@H](C(=O)N[C@@H](CC(C)C)C(=O)N1CCC[C@H]1C(=O)N1CCC[C@H]1C(=O)N[C@H](C(=O)N[C@@H](CC(N)=O)C(=O)N[C@H](C(=O)NCC(=O)N[C@@H](CO)C(=O)N[C@@H](CC(N)=O)C(=O)N[C@H](C(=O)N[C@@H](Cc1ccc(O)cc1)C(N)=O)[C@@H](C)O)C(C)C)[C@@H](C)O)C(C)C` [rAmy], the maximal response (Emax) was found to be 107 ± 18% on hCTR H296A; 93 ± 8% on hCTR M367A; 94 ± 20% at hCTR P363A; 72 ± 26% on hCTR W290A; 102 ± 13% at hCTR W361A.

On to `CC(C)C[C@H](NC(=O)CNC(=O)[C@H](C)NC(=O)[C@H](CC(C)C)NC(=O)[C@H](CCCNC(=N)N)NC(=O)[C@H](Cc1cnc[nH]1)NC(=O)[C@@H](NC(=O)[C@@H](NC(=O)[C@@H]1CSSC[C@H](NC(=O)[C@H](C)N)C(=O)N[C@@H](CC(=O)O)C(=O)N[C@@H]([C@@H](C)O)C(=O)N[C@@H](C)C(=O)N[C@@H]([C@@H](C)O)C(=O)N1)C(C)C)[C@@H](C)O)C(=O)N[C@@H](CC(C)C)C(=O)N[C@@H](CO)C(=O)N[C@@H](CCCNC(=N)N)C(=O)N[C@@H](CO)C(=O)NCC(=O)NCC(=O)N[C@H](C(=O)N[C@H](C(=O)N[C@@H](CCCCN)C(=O)N[C@@H](CC(N)=O)C(=O)N[C@@H](CC(N)=O)C(=O)N[C@@H](Cc1ccccc1)C(=O)N[C@H](C(=O)N1CCC[C@H]1C(=O)N[C@H](C(=O)N[C@@H](CC(N)=O)C(=O)N[C@H](C(=O)NCC(=O)N[C@@H](CO)C(=O)N[C@@H](CCCCN)C(=O)N[C@@H](C)C(=O)N[C@@H](Cc1ccccc1)C(N)=O)C(C)C)[C@@H](C)O)C(C)C)C(C)C)C(C)C` [hαCGRP], for which the Emax at hCTR H296A is 106 ± 18%; at hCTR M367A, […]; on hCTR P363A, 38 ± 7%; at hCTR W361A it was 102 ± 16%. Besides, the EC50 at hCTR H296A was 14.1 nM; on hCTR M367A, […]; at hCTR P363A, 38.9 nM; on hCTR W361A, 97.7 nM.

In the case of `CC[C@H](C)[C@H](NC(=O)[C@H](C)NC(=O)[C@@H](NC(=O)[C@H](CCC(N)=O)NC(=O)[C@@H]1CCCN1C(=O)[C@H](Cc1ccccc1)NC(=O)[C@@H](NC(=O)[C@H](Cc1c[nH]cn1)NC(=O)[C@H](Cc1ccccc1)NC(=O)[C@H](CCCCN)NC(=O)[C@H](CC(N)=O)NC(=O)[C@H](Cc1ccccc1)NC(=O)[C@H](CC(=O)O)NC(=O)[C@H](CCC(N)=O)NC(=O)[C@@H](NC(=O)[C@H](Cc1ccc(O)cc1)NC(=O)[C@@H](NC(=O)CNC(=O)[C@H](CC(C)C)NC(=O)[C@H](CCSC)NC(=O)[C@@H]1CSSC[C@H](N)C(=O)NCC(=O)N[C@@H](CC(N)=O)C(=O)N[C@@H](CC(C)C)C(=O)N[C@@H](CO)C(=O)N[C@@H]([C@@H](C)O)C(=O)N1)[C@@H](C)O)[C@@H](C)O)[C@@H](C)O)[C@@H](C)O)C(=O)NCC(=O)N[C@H](C(=O)NCC(=O)N[C@@H](C)C(=O)N1CCC[C@H]1C(N)=O)C(C)C` [hCT], the Emax came to 87 ± 4% on hCTR H296A; 82 ± 4% at hCTR M367A; 111 ± 5% on hCTR P363A; 164 ± 20% at hCTR W290A; 132 ± 9% on hCTR W361A.

For the origin of these results see article PMC5908784, “Extracellular loops 2 and 3 of the calcitonin receptor selectively modify agonist binding and efficacy” (Biochemical Pharmacology, 2018).
